Where a name gives a salt, the structure may show the parent alone. Read-outs that look alike come from different tables or passages of the source.
Columns and labels:
[1] = tested on: Lung tissue slices from male Wistar rats; parameters: method as in ref (14) (a number printed in a supplementary file, which may have a reference list of its own: not looked up in the article's list); conditions: monensin 10 µM, drug 5 µM, 60 min, ref (14); cited from earlier work
[2] = tested on: Liver tissue slices from male Wistar rats; parameters: method as in ref (9) (a number printed in a supplementary file, which may have a reference list of its own: not looked up in the article's list); conditions: NH4Cl 20 mM, drug 5 µM, 60 min, ref (9); cited from earlier work
[3] = tested on: Liver tissue slices from male Wistar rats; parameters: method as in ref (5) (a number printed in a supplementary file, which may have a reference list of its own: not looked up in the article's list); conditions: NH4Cl 20 mM, drug 5 µM, 60 min, ref (5); cited from earlier work
[4] = tested on: Lung tissue slices from male Wistar rats; parameters: method as in ref (5) (a number printed in a supplementary file, which may have a reference list of its own: not looked up in the article's list); conditions: NH4Cl 20 mM, drug 5 µM, 60 min, ref (5); cited from earlier work
[5] = tested on: Lung tissue slices from male Wistar rats; parameters: method as in ref (8) (a number printed in a supplementary file, which may have a reference list of its own: not looked up in the article's list); conditions: NH4Cl 20 mM, drug 5 µM, 60 min, ref (8); cited from earlier work
[6] = tested on: Liver tissue slices from male Wistar rats; parameters: method as in ref (8) (a number printed in a supplementary file, which may have a reference list of its own: not looked up in the article's list); conditions: NH4Cl 20 mM, drug 5 µM, 60 min, ref (8); cited from earlier work
[7] = tested on: Lung tissue slices from male Wistar rats; parameters: method as in ref (9) (a number printed in a supplementary file, which may have a reference list of its own: not looked up in the article's list); conditions: NH4Cl 20 mM, drug 5 µM, 60 min, ref (9); cited from earlier work
[8] = tested on: Liver tissue slices from male Wistar rats; parameters: method as in ref (14) (a number printed in a supplementary file, which may have a reference list of its own: not looked up in the article's list); conditions: monensin 10 µM, drug 5 µM, 60 min, ref (14); cited from earlier work
[9] = tested on: Brain slices from male Wistar rats; parameters: method as in ref (10) (a number printed in a supplementary file, which may have a reference list of its own: not looked up in the article's list); conditions: drug 5 µM, 60 min, ref (10), cited from earlier work; for Reduction in total uptake (%): NH4Cl 20 mM; for Reduction of total uptake (%): monensin 10 µM
[10] = tested on: Liver tissue slices from male Wistar rats; parameters: method as in ref (7) (a number printed in a supplementary file, which may have a reference list of its own: not looked up in the article's list); conditions: NH4Cl 3 mg/min/kg (i.v. infusion), drug 3.2 mg/kg (i.v. injection), 360 min, ref (7); cited from earlier work
[11] = tested on: Lung granule fraction containing lysosomes from male Wistar rats; parameters: method as in ref (6) (a number printed in a supplementary file, which may have a reference list of its own: not looked up in the article's list); conditions: NH4Cl 10 mM, drug 1 µM, 10 min; ref (6); cited from earlier work
[12] = tested on: Lung tissue slices from male Wistar rats; parameters: method as in ref (7) (a number printed in a supplementary file, which may have a reference list of its own: not looked up in the article's list); conditions: NH4Cl 3 mg/min/kg (i.v. infusion), drug 3.2 mg/kg (i.v. injection), 360 min, ref (7); cited from earlier work
[13] = tested on: Hepatocytes isolated from male Wistar rats; conditions: NH4Cl 10 mM, 15 min, ref (2), cited from earlier work
[14] = tested on: Lung tissue slices from male Sprague-Dawley rats; conditions: desipramine, diazepam 5 µM, chloroquine, thiopental 10 µM, 60 min, ref (3), cited from earlier work; for Reduction in total uptake (%): NH4Cl 20 mM; for Reduction of total uptake (%): monensin 10 µM
[15] = tested on: Liver tissue slices from male Sprague-Dawley rats; parameters: method as in ref (3) (a number printed in a supplementary file, which may have a reference list of its own: not looked up in the article's list); conditions: desipramine 5 µM, chloroquine 10 µM, 60 min, ref (3), cited from earlier work; for Reduction in total uptake (%): NH4Cl 20 mM
[16] = Drug uptake in NR8383 at 37 and 4°C (CLuptake, CLdiff, Kp); conditions: rat
NR8383 cells [17] = experiment: as above; conditions: NR8383, 5 μM; CLdiff relative to CLuptake
NR8383 cells [18] = conditions: high drug concentrations (50 and 100 μM per method), not stated at the place
[19] = experimental value; ref ([21])-([30]) per drug, Table I; cited from earlier work
[20] = Lysosomal sequestration studies in NR8383 with NH4Cl, monensin and nigericin; conditions: rat; for Kp at 10 min, 5 μM: NR8383, 5 μM drug; for Kp at 10 min, 20 µM: NR8383, 20 µM drug
NR8383 cells [21] = experiment: as above; conditions: for % Reduction in Kp by NH4Cl: NH4Cl 20 mM
[22] = Physicochemical properties, experimental literature values (Table I); conditions: classification in Table I
[23] = Accumulation (Kp) in NR8383 over a concentration range, two-site binding model; conditions: rat, control
NR8383 cells [24] = experiment: as above; conditions: apparent saturable uptake equilibrium constant, two-site binding model, control
[25] = tested on: Mouse peritoneal macrophages; parameters: method as in ref (1) (a number printed in a supplementary file, which may have a reference list of its own: not looked up in the article's list); conditions: drug 50 µM, 120 min, ref (1), cited from earlier work
NR8383 cells [26] = experiment: LysoTracker Red (LTR) confocal assessment of lysosomal sequestration in NR8383; assay type: cell-based, rat; conditions: NH4Cl 20 mM, monensin 5 μM, nigericin 10 μM with 200 nM LTR

In the case of CN(C)CCC=C1c2ccccc2CCc2ccccc21 [Amitriptyline], the “Reduction of total uptake (%)” value [1] is listed as 70%, the “Reduction in total uptake (%)” value [2] is listed as 67% and the “Reduction in total uptake (%)” value [3] is listed as 40%. For the same compound, the “Reduction in total uptake (%)” value [4] was 63%, the “Reduction in total uptake (%)” value [5] was 56% and the “Reduction in total uptake (%)” value [6] was 68%. The “Reduction in total uptake (%)” value [7] was 47%, the “Reduction of total uptake (%)” value [8] was 48% and the “Reduction in total uptake (%)” value [9] was 32%. The “Reduction of total uptake (%)” value [9] was 31%.

For OC(CCN1CCCCC1)(c1ccccc1)C1CC2C=CC1C2 (stereo not shown) [Biperiden], the “Reduction in total uptake (%)” value [10] is given as 2.5%, the “Reduction in total uptake (%)” value [11] is given as 56% and the “Reduction in total uptake (%)” value [12] is given as 77%.

For NC(=O)N1c2ccccc2C=Cc2ccccc21 [Carbamazepine], the “Reduction of total uptake (%)” value [1] is given as 5.4%, the “Reduction in total uptake (%)” value [3] is given as 16.1% and the “Reduction in total uptake (%)” value [4] is given as 5.4%. For the same compound, the “Reduction of total uptake (%)” value [8] was 0%.

For CCN(CC)CCCC(C)Nc1ccnc2cc(Cl)ccc12 (stereo not shown) [Chloroquine], the “Reduction in total uptake (%)” value [11] is given as 87%, the “Reduction in total uptake (%)” value ([13]; drug 10 µM) is given as 93% and the “Reduction in total uptake (%)” value ([13]; drug 100 µM) is given as 77%. The “Reduction in total uptake (%)” value [14] was 66%, the “Reduction of total uptake (%)” value [14] was 73% and the “Reduction in total uptake (%)” value [15] was 53%. For the same compound, the “Reduction of total uptake (%)” value ([15]; monensin 10 µM) was 44%.

For CNCCCN1c2ccccc2CCc2ccccc21 [Desipramine], the “Reduction in total uptake (%)” value [14] is given as 23%, the “Reduction of total uptake (%)” value [14] is given as 12% and the “Reduction in total uptake (%)” value [15] is given as 15%.

In the case of COc1ccc(CC(C)NCC(O)c2ccc(O)c(NC=O)c2)cc1 (stereo not shown) [Formoterol], the Kp at 10 min, 5 μM [16] is reported as 24.5 ± 8.71, the “Contribution of passive (%)” value (NR8383 cells [17]) is reported as 3.71% and the “cytotoxicity (LDH) compared to positive control” value (NR8383 cells [18]) is reported as “less than 5%”. For the same compound, the LogD7.4 [19] was 2.60, the Kp at 10 min, 5 μM ([20]; Kp + NH4Cl, 20 mM NH4Cl co-incubated, 10 min) was 15.5 ± 1.16 and the Kp at 10 min, 20 µM ([20]; Kp + NH4Cl, 20 mM NH4Cl) was 19.2 ± 4.13. The Kp at 10 min, 5 μM ([20]; Kp Control, control) was 20.8 ± 3.6, the Kp at 10 min, 20 µM ([20]; Kp Control, control) was 26.5 ± 6.54 and the “% Reduction in Kp by NH4Cl” value (NR8383 cells [21]; NR8383, 5 μM drug) was 24 ± 9.0%. The “% Reduction in Kp by Monensin” value (NR8383 cells [21]; NR8383, 5 μM drug, monensin 5 μM, 5 min) was 40 ± 7.5%, the “% Reduction in Kp by Nigericin” value (NR8383 cells [21]; NR8383, 5 μM drug, nigericin 10 μM, 5 min) was 27 ± 5.1 % and the “% Reduction in Kp by NH4Cl” value (NR8383 cells [21]; NR8383, 20 µM drug) was 27 ± 8.1 %. For the same compound, the “% Reduction in CLuptake by Monensin (5 µM)” value (NR8383 cells [21]; NR8383, at 5 µM drug) was 41 ± 5.6%, the “% Reduction in CLuptake by NH4Cl (20 mM)” value (NR8383 cells [21]; NR8383, at 5 µM drug) was 25 ± 14% and the “% Reduction in CLuptake by Nigericin (10 µM)” value (NR8383 cells [21]; NR8383, at 5 µM drug) was 19 ± 12%. For the same compound, the “% Reduction in CLuptake by NH4Cl (20 mM)” value (NR8383 cells [21]; NR8383, at 20 µM drug) was 27 ± 13%, the “reduction in Kp in the presence of chemical agents (summary in Discussion)” value (NR8383 cells [21]; NR8383, NH4Cl, monensin, nigericin) was 20–40% and the “Acid–base Property” value [22] was “Base”. The Kp at 10 min ([23]; Kp,max, sum of Kp,U1,max and Kp,min) was 69, the Kp at 10 min ([23]; Kp,min, NR8383, 37°C, concentration range, two-site binding model) was 10 ± 0.92 and the KU1 (NR8383 cells [24]) was 1.54 ± 0.49 µM.

In the case of CN [Methylamine], the “Reduction in total uptake (%)” value ([25]; NH4Cl 10 mM) is given as 54% and the “Reduction of total uptake (%)” value ([25]; nigericin 5 µg/ml (~7 µM)) is given as 49%.

In the case of CN(C)CCCN1c2ccccc2Sc2ccccc21 [Promazine], the “Reduction of total uptake (%)” value [1] is listed as 71%, the “Reduction in total uptake (%)” value [3] is listed as 59% and the “Reduction in total uptake (%)” value [4] is listed as 46.8%. For the same compound, the “Reduction of total uptake (%)” value [8] was 86%, the “Reduction in total uptake (%)” value [9] was 20% and the “Reduction of total uptake (%)” value [9] was 35%.

For OC(CCN1CCCCC1)(c1ccccc1)C1CCCCC1 (stereo not shown) [Trihexyphenidyl], the “Reduction in total uptake (%)” value [10] is listed as 11%, the “Reduction in total uptake (%)” value [11] is listed as 54% and the “Reduction in total uptake (%)” value [12] is listed as 68%.

In the case of CC[C@@]1([C@@H]2O[C@@H]([C@H]3O[C@@](O)(CO)[C@H](C)C[C@@H]3C)C[C@@H]2C)CC[C@H]([C@]2(C)CC[C@]3(C[C@H](O)[C@@H](C)[C@@H]([C@@H](C)[C@@H](OC)[C@H](C)C(=O)O)O3)O2)O1 [monensin, monensin sodium salt], the “reduced LTR fluorescent signal” value (NR8383 cells [26]) is reported as “up to 85%”.

For CO[C@@H]1C[C@@H](C[C@H]2CC[C@H](C)[C@H]([C@@H](C)C(=O)O)O2)O[C@]2(O[C@](C)([C@H]3CC[C@@](C)([C@@H]4O[C@@H]([C@H]5O[C@@](O)(CO)[C@H](C)C[C@@H]5C)C[C@@H]4C)O3)C[C@H]2C)[C@@H]1C [nigericin, nigericin sodium salt], the “reduced LTR fluorescent signal” value (NR8383 cells [26]) was “up to 85%”.
